Test results published in patent US20250195521A1 (Revolution Medicines, Inc., priority 2020, published 2025).
pEC50, pIC50: −log10 of the molar value. Values joined by “and” are separate entries in the source; they are usually repeats but may differ in a detail not shown here. Equal entries are not always repeated. Where two headings read alike, the source gives them in different places.

Assays:
NCI-H358 (K-Ras G12C) = assay: CellTiter-Glo cell viability assay, NCI-H358; type: cell-based, human; conditions: Homo sapiens, NCI-H358, 120 h; for pIC50: 5-day treatment, read-out: H358 Cell Viability assay data (K-Ras G12C, IC50)
In short: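 Viability is measured as ATP-dependent luminescence (CellTiter-Glo) five days into compound treatment. Responses are normalized to vehicle (DMSO) wells and fitted by four-parameter logistic regression.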

[1] = biological target: K-Ras G12C(GMP-PNP) binding to BRAF RBD (Homo sapiens (Human), UniProt P01116+P62937, G12C); assay: Disruption of BRAF RBD interaction with K-Ras (FRET / MOA assay), K-Ras G12C; type: biochemical
Description: Note—The following protocol describes a procedure for monitoring disruption of K-Ras G12C(GMP-PNP) binding to BRAF^RBD by a compound of the invention. This protocol may also be executed substituting other Ras proteins or nucleotides.
The purpose of this biochemical assay was to measure the ability of test compounds to facilitate ternary complex formation between a nucleotide-loaded K-Ras isoform and Cyclophilin A; the resulting ternary complex disrupts binding to a BRAF^RBD construct, inhibiting K-Ras signaling through a RAF effector. Data is reported as IC50 values.
Compound was present in plate wells as a 10-point 3-fold dilution series starting at a final concentration of 30 μM. After incubation at 25° C. for 3 hours, a mixture of Anti-His Eu—W1024 and anti-GST allophycocyanin was then added to assay sample wells at final concentrations of 10 nM and 50 nM, respectively, and the reaction incubated for an additional 1.5 hours. […] Compounds that facilitate disruption of a K-Ras: RAF complex were identified as those eliciting a decrease in the TR-FRET ratio relative to DMSO control wells.

[2] = tested on: K-Ras G12C (NCI-H358 cells); assay: Potency assay: pERK in NCI-H358 cells; type: cell-based, human; conditions: read-out: pERK EC50 (H358 KRAS G12C)
In short: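 Cells plated the day before were exposed for 4 h at 37° C, 5% CO2 to a 10-point, 3-fold DMSO dilution series (10 mM top stock), in duplicate. Phospho-ERK was read by AlphaLISA SureFire Ultra or by In-Cell Western with DRAQ5 DNA stain, and IC50 came from a 4-parameter sigmoidal fit.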

[3] = tested on: Capan-1 cells (K-Ras G12V); assay: CellTiter-Glo cell viability, Capan-1; type: cell-based, human; conditions: Homo sapiens, CAPAN-1, 120 h, K-Ras G12V, 5-day treatment; read-out: Capan-1 Cell Viability IC50
In short: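 Viability is read as luminescence after five days of compound exposure, with plates first equilibrated to room temperature for roughly 30 minutes. Each signal is expressed as a percentage of the mean DMSO control, and curves are fitted by four-parameter logistic regression.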

KRAS G12D = KRAS G12D (Homo sapiens (Human), UniProt P01116+P62937, G12D); assay: Ras-Raf disruption/FRET/MOA assay (BRAF RBD, Cyclophilin A); type: biochemical; conditions: read-out: KRAS G12D FRET IC50
In short: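 His6-K-Ras-GMPPNP (12.5 nM), GST-BRAF RBD (50 nM) and tagless Cyclophilin A (25 μM) were combined in 25 mM HEPES pH 7.3 with 100 mM NaCl, 5 mM MgCl2, 0.1% BSA and 0.002% Tween20, with compound as a 10-point 3-fold series from 30 μM final, then incubated 3 h at 25° C.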

[4] = Homo sapiens, NCI-H358 cells, 4 hours

Sequence of K-Ras G12C(GMP-PNP) binding to BRAF RBD (P01116 other isoform, or with tags, fused parts or gaps G12C): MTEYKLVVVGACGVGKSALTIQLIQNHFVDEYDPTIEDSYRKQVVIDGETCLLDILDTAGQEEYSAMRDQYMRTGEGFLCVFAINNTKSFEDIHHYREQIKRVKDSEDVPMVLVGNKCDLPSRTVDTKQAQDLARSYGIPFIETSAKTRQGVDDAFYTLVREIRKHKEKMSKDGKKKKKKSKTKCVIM
Sequence of K-Ras G12C(GMP-PNP) binding to BRAF RBD (P62937 whole entry): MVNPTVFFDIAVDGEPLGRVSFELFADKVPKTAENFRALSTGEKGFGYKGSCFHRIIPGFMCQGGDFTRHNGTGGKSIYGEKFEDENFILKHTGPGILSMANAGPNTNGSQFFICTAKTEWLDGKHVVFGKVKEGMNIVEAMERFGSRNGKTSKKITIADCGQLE
Sequence of KRAS G12D (P01116 other isoform, or with tags, fused parts or gaps G12D): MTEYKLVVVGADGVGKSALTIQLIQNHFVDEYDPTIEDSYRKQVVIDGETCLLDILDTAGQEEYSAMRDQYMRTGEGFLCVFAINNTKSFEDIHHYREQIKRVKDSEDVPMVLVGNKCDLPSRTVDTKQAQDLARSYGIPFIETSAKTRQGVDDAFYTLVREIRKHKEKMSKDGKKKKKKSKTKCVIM
Sequence of KRAS G12D (P62937 whole entry): as the sequence (P62937 whole entry) above

Compound	pIC50 (NCI-H358 (K-Ras G12C))	pIC50 ([1]; read-out: KRAS G12C FRET IC50)	also measured
CCn1c(-c2cccnc2[C@H](C)OC)c2c3cc(ccc31)-c1csc(n1)C[C@H](NC(=O)[C@H](C(C)C)N(C)C(=O)N1CC([C@@H](C)CO)C1)C(=O)N1CCC[C@H](N1)C(=O)OCC(C)(C)C2 (single isomer, unassigned) [Compound A487]	7.00 to 8.00	6.00 to 7.00	
CCn1c(-c2cccnc2[C@H](C)OC)c2c3cc(ccc31)-c1cc(O)cc(c1)C[C@H](NC(=O)[C@H](C(C)C)N(C)C(=O)[C@H]1CCN(C)C1)C(=O)N1CCC[C@H](N1)C(=O)OCC(C)(C)C2 [Compound A100]		5.00 to 6.00	
CCn1c(-c2cccnc2[C@H](C)OC)c2c3cc(ccc31)-c1csc(n1)C[C@H](NC(=O)[C@H](C(C)C)N(C)C(=O)[C@H]1CCN(C(=O)CN)C1)C(=O)N1CCC[C@H](N1)C(=O)OCC(C)(C)C2 [Compound A106]		5.00 to 6.00	
CCn1c(-c2cccnc2[C@H](C)OC)c2c3cc(ccc31)-c1cccc(c1)C[C@H](NC(=O)[C@H](C(C)C)N(C)C(=O)[C@H]1CCN(C(=O)C(C)(C)N(C)C)C1)C(=O)N1CCC[C@H](N1)C(=O)OCC(C)(C)C2 [Compound A112]		6.00 to 7.00 and > 8.00	pEC50 [2, 4]: > 5.30
CCn1c(-c2cccnc2[C@H](C)OC)c2c3cc(ccc31)-c1cc(O)cc(c1)C[C@H](NC(=O)[C@H](C(C)C)N(C)C(=O)[C@H]1CCN(C(=O)OC(C)C)C1)C(=O)N1CCC[C@H](N1)C(=O)OCC(C)(C)C2 [Compound A117]	6.00 to 7.00	6.00 to 7.00	pEC50 [2, 4]: > 5.30
CCn1c(-c2cccnc2[C@H](C)OC)c2c3cc(ccc31)-c1cc(O)cc(c1)C[C@H](NC(=O)[C@H](C(C)C)N(C)C(=O)C1CCN3CCOCC13)C(=O)N1CCC[C@H](N1)C(=O)OCC(C)(C)C2 (stereo partly shown) [Compound A123]			pIC50 ([1]; KRAS G12C FRET IC50): 7.00 to 8.00; pEC50 [2, 4]: > 5.30
CCn1c(-c2cccnc2[C@H](C)OC)c2c3cc(ccc31)-c1csc(n1)C[C@H](NC(=O)[C@H](C(C)C)N(C)C(=O)N(C)C)C(=O)N1CCC[C@H](N1)C(=O)OCC(C)(C)C2 [Compound A136]		5.00 to 6.00	
CCn1c(-c2cccnc2[C@H](C)OC)c2c3cc(ccc31)-c1csc(n1)C[C@H](NC(=O)[C@H](C(C)C)N(C)C(=O)[C@@H]1OCC[C@@H]1C)C(=O)N1CCC[C@H](N1)C(=O)OCC(C)(C)C2 [Compound A143]	7.00 to 8.00	6.00 to 7.00	
CCn1c(-c2cccnc2[C@H](C)OC)c2c3cc(ccc31)-c1cc(O)cc(c1)C[C@H](NC(=O)[C@H](C(C)C)N(C)C(=O)[C@H]1C[C@H]1C)C(=O)N1CCC[C@H](N1)C(=O)OCC(C)(C)C2 [Compound A146]	6.00 to 7.00	6.00 to 7.00	
CCn1c(-c2cccnc2[C@H](C)OC)c2c3cc(ccc31)-c1nc(cs1)C[C@H](NC(=O)[C@H](C(C)C)N(C)C(C)=O)C(=O)N1CCC[C@H](N1)C(=O)OCC(C)(C)C2 [Compound A152]	7.00 to 8.00	7.00 to 8.00	pEC50 [2, 4]: > 5.30
CCn1c(-c2cccnc2[C@H](C)OC)c2c3cc(ccc31)-c1cc(O)cc(c1)C[C@H](NC(=O)[C@H](C(C)C)N(C)C(=O)C1(N)CC1)C(=O)N1CCC[C@H](N1)C(=O)OCC(C)(C)C2 [Compound A168]		6.00 to 7.00	IC50 (NCI-H358 (K-Ras G12C); read-out: H358 Cell Viability assay data (K-Ras G12C, IC50, uM), 5-day treatment): 0.01 to 0.1 µM; pEC50 ([2]; Homo sapiens, NCI-H358, 4 h): > 5.30
CCn1c(-c2cccnc2[C@H](C)OC)c2c3cc(ccc31)-c1cc(O)cc(c1)C[C@H](NC(=O)[C@H](C(C)C)N(C)C(=O)N1CC(N(C)C)C1)C(=O)N1CCC[C@H](N1)C(=O)OCC(C)(C)C2 [Compound A171]	6.00 to 7.00	5.00 to 6.00	pEC50 [2, 4]: > 5.30
CCn1c(-c2cccnc2[C@H](C)OC)c2c3cc(ccc31)-c1cc(O)cc(c1)C[C@H](NC(=O)[C@@H](NC(C)=O)C(C)(C)OC)C(=O)N1CCC[C@H](N1)C(=O)OCC(C)(C)C2 [Compound A172]	7.00 to 8.00	7.00 to 8.00	pEC50 [2, 4]: > 5.30
CCn1c(-c2cccnc2[C@H](C)OC)c2c3cc(ccc31)-c1cc(O)cc(c1)C[C@H](NC(=O)[C@H](C(C)C)N(C)C(=O)O[C@H]1CCOC1)C(=O)N1CCC[C@H](N1)C(=O)OCC(C)(C)C2 [Compound A209]		7.00 to 8.00 and > 8.00	
C=CC(=O)N1CC[C@]2(CCCN([C@H](C(=O)N[C@H]3Cc4cc(O)cc(c4)-c4ccc5c(c4)c(c(-c4ccccc4CCOC)n5CC)CC(C)(C)COC(=O)[C@@H]4CCCN(N4)C3=O)C(C)C)C2)C1 [Compound A217]		6.00 to 7.00 and < 5.00	pEC50 [2, 4]: > 5.30
CCn1c(-c2cccnc2[C@H](C)OC)c2c3cc(ccc31)-c1cc(O)cc(c1)C[C@H](NC(=O)[C@H](C(C)C)N(C)C(=O)C1NCCC13CC3)C(=O)N1CCC[C@H](N1)C(=O)OCC(C)(C)C2 (stereo partly shown) [Compound A228]	< 5.00	5.00 to 6.00	
CCn1c(-c2cccnc2[C@H](C)OC)c2c3cc(ccc31)-c1csc(n1)C[C@H](NC(=O)[C@H](C(C)C)N(C)C(=O)[C@H]1CCCO1)C(=O)N1CCC[C@H](N1)C(=O)OCC(C)(C)C2 [Compound A238]	7.00 to 8.00	7.00 to 8.00	
CCn1c(-c2cccnc2[C@H](C)OC)c2c3cc(ccc31)-c1csc(n1)C[C@H](NC(=O)[C@H](C(C)C)N(C)C(=O)N1CCC13CN(C)C3)C(=O)N1CCC[C@H](N1)C(=O)OCC(C)(C)C2 [Compound A274]	6.00 to 7.00	5.00 to 6.00	
CCn1c(-c2cccnc2[C@H](C)OC)c2c3cc(ccc31)-c1csc(n1)C[C@H](NC(=O)[C@H](C(C)C)N(C)C(=O)N1C[C@H]3CN(C)C[C@H]3C1)C(=O)N1CCC[C@H](N1)C(=O)OCC(C)(C)C2 [Compound A313]	< 5.00	5.00 to 6.00	
CCn1c(-c2cccnc2[C@H](C)OC)c2c3cc(ccc31)-c1cc(O)cc(c1)C[C@H](NC(=O)[C@H](C(C)C)N(C)C(=O)[C@H]1CCN(C(=O)[C@H]3CCCN3)C1)C(=O)N1CCC[C@H](N1)C(=O)OCC(C)(C)C2 [Compound A378]		6.00 to 7.00	pIC50 [3]: 5.00 to 6.00
CCn1c(-c2cccnc2[C@H](C)OC)c2c3cc(ccc31)-c1cc(C#N)cc(c1)C[C@H](NC(=O)[C@H](C(C)C)N(C)C(C)=O)C(=O)N1CCC[C@H](N1)C(=O)OCC(C)(C)C2 [Compound A430]	7.00 to 8.00	6.00 to 7.00	
CCn1c(-c2cccnc2[C@H](C)OC)c2c3cc(ccc31)C1=C[C@@H](O)CN(C1)C[C@H](NC(=O)[C@H]1[C@H](C)[C@@H]1C)C(=O)N1CCC[C@H](N1)C(=O)OCC(C)(C)C2 [Compound A441, (1R,2R,3S)—N-((2^3S,6^3S,4S)-1^1-ethyl-2^3-hydroxy-1^2-(2-((S)-1-methoxyethyl)pyridin-3-yl)-10,10-dimethyl-5,7-dioxo-2^1,2^2,2^3,2^6,6^1,6^2,6^3,6^4,6^5,6^6-decahydro-1^1H-8-oxa-1 (5,3)-indola-6 (1,3)-pyridazina-2 (5,1)-pyridinacycloundecaphane-4-yl)-2,3-dimethylcyclopropane-1-carboxamide]		5.00 to 6.00	pIC50 (KRAS G12D): 6.00 to 7.00; pEC50 ([2]; NCI-H358 cells, 4 hours): > 5.30
CCn1c(-c2cccnc2[C@H](C)OC)c2c3cc(ccc31)-c1csc(n1)C[C@H](NC(=O)[C@H](C(C)C)N(C)C(=O)N1CC3(CC(N(C)CCO)C3)C1)C(=O)N1CCC[C@H](N1)C(=O)OCC(C)(C)C2 [Compound A467]	7.00 to 8.00	5.00 to 6.00	
CCn1c(-c2cc(N3CCN(C)CC3)cnc2[C@H](C)OC)c2c3cc(ccc31)-c1cccc(c1)C[C@H](NC(=O)[C@H](C(C)C)N(C)C(=O)[C@@H]1OCC[C@@H]1c1ccccc1)C(=O)N1CCC[C@H](N1)C(=O)OCC(C)(C)C2 [Compound A562]	6.00 to 7.00	6.00 to 7.00	
CCn1c(-c2cccnc2[C@H](C)OC)c2c3cc(ccc31)-c1csc(n1)C[C@H](NC(=O)[C@H](C(C)C)N(C)C(=O)N1CC(C3CN(C)C3)C1)C(=O)N1CCC[C@H](N1)C(=O)OCC(C)(C)C2 [Compound A608]	7.00 to 8.00	6.00 to 7.00	
